Data reported in patent US20050182025A1, “Amidinylphenyl compounds and their use as fungicides” (priority 2002, published 2005).

Columns and labels:
Format in all cases: in vivo
[1] = test system: Puccinia recondita; test: Test B: preventive spray on wheat seedlings, wheat leaf rust, disease rating; settings: wheat seedlings sprayed to run-off, inoculated the following day with Puccinia recondita, 24 h saturated atmosphere then 6 days at 20° C.; test concentration not given
From the text: (§1) General protocol for preparing test suspensions: Test compounds were first dissolved in acetone in an amount equal to 3% of the final volume and then suspended at the desired concentration (in ppm) in acetone and purified water (50/50 mix) containing 250 ppm of the surfactant Trem® 014 (polyhydric alcohol esters). The resulting test suspensions were then used in the following tests. Spraying a 200 ppm test suspension to the point of run-off on the test plants was the equivalent of a rate of 500 g/ha. The test suspension was sprayed to the point of run-off on wheat seedlings. The following day the seedlings were inoculated with a spore suspension of Puccinia recondita (the causal agent of wheat leaf rust) and incubated in a saturated atmosphere at 20° C. for 24 h, and then moved to a growth chamber at 20° C. for 6 days, after which disease ratings were made. Results for Tests A-C are given in Table A. In the table, a rating of 100 indicates 100% disease control and a rating of 0 indicates no disease control (relative to the controls). A dash (-) indicates no test results.

[2] = test system: Septoria nodorum; test: Test C: preventive spray on wheat seedlings, Septoria glume blotch, disease rating; settings: wheat seedlings sprayed to run-off, inoculated the following day with Septoria nodorum, 48 h saturated atmosphere then 9 days at 20° C.; test concentration not given
From the text: as §1, with “Septoria nodorum” for “Puccinia recondita”, “Septoria glume blotch)” for “wheat leaf rust)”, “48” for “24”, “9” for “6”

[3] = test system: Erysiphe graminis f. sp. tritici; test: Test A: preventive spray on wheat seedlings, wheat powdery mildew, disease rating; settings: wheat seedlings sprayed to run-off, inoculated the following day with Erysiphe graminis f. sp. tritici, rated after 7 days at 20° C.; test concentration not given
From the text: as §1, with “spore dust” for “spore suspension”, “of Erysiphe graminis f. sp. tritici,” for “of Puccinia recondita”, “wheat powdery mildew)” for “wheat leaf rust)”, “in” for “in a saturated atmosphere at 20° C. for 24 h, and then moved to”, “for 7” for “for 6”

Compound	Test B disease control rating (100 = 100% disease control, 0 = no disease control relative to the controls) [1]	Test C disease control rating (100 = 100% disease control, 0 = no disease control relative to the controls) [2]	Test A disease control rating (100 = 100% disease control, 0 = no disease control relative to the controls) [3]
CCN(C)C=Nc1cc(C)c(OCCC[Si](C)(C)C)c(Cl)c1C [compound 140]	100%	100%	100%
CCCN(C)C(=S)Nc1cc(C)c(OCCC[Si](C)(C)CC)cc1C [compound 78]	98%	100%	0%
C=C(C)CCC(CC)Oc1cc(C)c(N=C(C)N(C)C)cc1C (stereo not drawn) [compound 104]	23%	0%	0%
Cc1c(NC(=S)N(C)C)cc(Cl)c(OCCCC(C)(C)C)c1Cl [compound 121]	85%	67%	49%
CCN(C)C(=S)Nc1cc(Cl)c(OCCCC(C)(C)C)cc1C [compound 178]	100%	100%	100%
Cc1cc(OCCCC(C)(C)C)c(Cl)cc1N=CN(C)C [compound 175]	100%	100%	97%
Cc1cc(NC(CCC(C)C)CCC(C)C)c(C)cc1N=CN(C)C [compound 151]	0%	60%	0%
CCN(CC)C(=S)Nc1cc(Cl)c(OCCCC(C)(C)C)cc1C [compound 120]	8%	0%	91%
CCN(CC)C(=S)Nc1cc(Cl)c(OCCC[Si](C)(C)C)cc1Cl [compound 185]	98%	63%	99%
CCCCCC(CCCCC)Oc1cc(C)c(N=CN(C)C)cc1C [Compound 30]	100%	0%	0%
Cc1cc(OCCCC(C)(C)C)c(C)cc1N=CN(C)C [Compound 50]	67%	100%	99%
Cc1cc(OCCC[Si](C)(C)C)c(Cl)cc1N=CN(C)C1CC1 [compound 61]	100%	100%	100%
CC(C)CCCOc1cc(Cl)c(N=CN(C)C)cc1Cl [compound 126]	40%	100%	95%
CCCCCCCCCCOc1cc(C)c(N=CN(C)C)cc1C [Compound 24]	23%	0%	86%
CCCCCCCCCCCCOc1cc(C)c(N=CN(C)C)cc1C [Compound 25]	90%	0%	0%
CC(=Nc1cc(C)c(OC(C)CCC(C)C)cc1C)N(C)C (stereo not drawn) [compound 102]	95%	89%	21%
Cc1cc(OCCC[Si](C)(C)C)c(C(C)C)cc1NC(=S)N(C)C(C)C [compound 92]	100%	100%	100%
CN(C)C=Nc1cc(Cl)c(OCCC[Si](C)(C)C)c(Cl)c1Cl [compound 55]	19%	0%	0%
C=CCCCOc1cc(C)c(N=CN(C)C)cc1C [Compound 6]	100%	60%	0%
CCN(C)C(=Nc1cc(Cl)c(OCCC[Si](C)(C)C)cc1C)C(=O)OC [compound 129]	100%	67%	100%
Cc1cc(SCCCC(C)C)c(C)cc1N=CN(C)C [compound 156]	100%	100%	93%
CCCN(C)C(=S)Nc1cc(C(C)C)c(OCCC[Si](C)(C)C)cc1C [compound 93]	100%	99%	99%
CCCCN(C)C(=S)Nc1cc(C(C)C)c(OCCC[Si](C)(C)C)cc1C [compound 91]	26%	0%	0%
CCCCC(CCC)Oc1cc(C)c(N=CN(C)C)cc1C (stereo not drawn) [Compound 29]	100%	58%	99%
CCN(C)C(=S)Nc1cc(Cl)c(OCCCC(C)C)cc1C [compound 112]	99%	99%	95%
CC(=Nc1cc(C)c(OC(CCC(C)C)CCC(C)C)cc1C)N(C)C [compound 103]	0%	0%	31%
C=CCN(C)C=Nc1cc(F)c(OCCC[Si](C)(C)C)cc1C [compound 64]	100%	100%	100%
